Here are results for nine molecules from US10364227B2, “Therapeutic compounds” (ARIZONA BOARD OF REGENTS ON BEHALF OF ARIZONA STATE …, priority 2015, dated 2019).

Test in one data set: not given
To be noted: calculated value, James et al. (2005) J Biol. Chem. 280, 21295; cited from earlier work.
Take `COC1=C(OC)C(=O)C(C/C=C(\C)CC/C=C(\C)CC/C=C(\C)CC/C=C(\C)CC/C=C(\C)CC/C=C(\C)CC/C=C(\C)CC/C=C(\C)CC/C=C(\C)CCC=C(C)C)=C(C)C1=O` [coenzyme Q10]: the “calculated octanol-water partition coefficient” value is listed as > 10^20.

Another data set in a line: Bioavailability in a mouse model (blood level after oral gavage). It counts as in vivo. To be noted: whole blood, 100 mg/kg oral gavage in olive oil, blood sample 6 h after gavage, quantified by HPLC. Here is the method: Bioavailability is an important characteristic of many therapeutic agents. Accordingly, certain compounds disclosed herein were tested for bioavailability in a mouse model.
The test compound was prepared on the day of dose administration by dissolving the appropriate amount of test article in olive oil to reach the proper concentrations.
The dose of 100 mg/kg body weight (total volume of administration was <120 μL) was used for testing. For example, a mouse whose body weight is 20 g would need 2 mg of test article in oral gavage. Mice were food deprived overnight. On the experimental day, mice were weighed to obtain dosage information before oral gavage was performed. Blood and brain samples were collected at the desired post-dose time points after oral gavage. Brain samples were perfused to exclude blood as a factor in the analysis of bioavailability.
With `CCCCCCCCCCCCCCCCc1nc(N2CCC2)nc(OC2CCC2)c1O` [Compound 12, 2-(Azetidin-1-yl)-4-cyclobutanoxy-6-hexadecylpyrimidin-5-ol], the concentration at 6 h was roughly 4 µM.

Test in the next data set: not given
Conditions: not given
One may read the melting point as the temperature, or range, at which the solid turns liquid. The molecule `[2H]C(CCCCCCCCCCCCCCC)c1nc(N(C([2H])([2H])[2H])C([2H])([2H])[2H])nc(OC([2H])([2H])[2H])c1O` (stereo not drawn) [Compound 2, 2-(N,N-dimethylamino-d6)-4-(1-hexadecyl-d1)-6-(methoxy-d3)-pyrimidin-5-ol] gave a melting point of 75 to 76 °C. Still for that read-out and setting: the figure for `CCCCCCCCCCCCCCCCc1nc(N2CCC2)nc(OC)c1O` [Compound 8, 2-(Azetidin-1-yl)-4-methoxy-6-hexadecylpyrimidin-5-ol] is 59 to 60 °C; for `CCCCCCCCCCCCCCCCc1nc(N2CCC2)nc(OCC)c1O` [Compound 9, 2-(Azetidin-1-yl)-4-ethoxy-6-hexadecylpyrimidin-5-ol] it is 79 to 80 °C. In the case of `CCCCCCCCCCCCCCCOc1nc(N2CCC2)nc(C)c1O` [Compound 11, 2-(Azetidin-1-yl)-4-methyl-6-(pentadecyloxy)pyrimidin-5-ol], the melting point fell in the range of 83 to 85 °C. Turning to `[2H]C([2H])([2H])N(c1nc(CCCCCCCCCCCCCCCC)c(O)c(OC2CCC2)n1)C([2H])([2H])[2H]` [Compound 13, 4-Cyclobutoxy-2-(N,N-dimethylamino)-6-hexadecylpyrimidin-5-ol-d6], the melting point was in the range of 72 to 73 °C. The same measure, in the same setting: the figure for `CCCCCCCCCCCCCCCCc1nc(N2CCCC2)nc(OC2CCC2)c1O` [Compound 14, 4-Cyclobutoxy-2-(pyrrolidin-1-yl)-6-hexadecylpyrimidin-5-ol] is 74 to 76 °C; for `CCCCCCCCCCCCCCCCc1nc(N2CCCCC2)nc(OC2CCC2)c1O` [Compound 15, 4-Cyclobutoxy-2-(piperidin-1-yl)-6-hexadecylpyrimidin-5-ol] it is 78 to 79 °C.
